Measurements as given in patent US11111230B2 (ADLAI NORTYE BIOPHARMA CO., LTD., priority 2017, dated 2021).

Columns and labels:
human IDO1 protein = molecular target: T1, human IDO1 protein (Homo sapiens, UniProt P14902); experiment: Activity in HEK293 cells highly expressing human IDO1 protein; assay type: cell-based; details: HEK293-IDO cells, tryptophan 16 mg/L, 24 hours, absorption at 480 nm; read-out: IC50 (HEK293 cell)
T1 construct: expressed in transfected cells; host or cells: HEK293
Method: Example 2: Study on the Activity of the Present Invention in HEK293 Cells Highly Expressing Human IDO1 Protein
HEK293-IDO cells with high expression of human IDO1 protein were prepared by electrotransformation, and the cells were seeded in 96-well culture plates, and cultured at 37° C., 100% relative humidity, and 5% CO2 incubator for 24 hours. Dissolve in DMSO and dilute to the appropriate concentration, then use DMEM medium containing 10% fetal bovine serum to dilute the candidate 100-fold to the final concentration. Aspirate the old medium from the 96-well plate and add 200 μL of the medium contained in the previous step to each well. The content of tryptophan in the medium is 16 mg/L. The cells were placed in a 37° C., 100% relative humidity, and 5% CO2 incubator for 24 hours. 140 μL of the cell culture supernatant was mixed with 15 μL of trichloroacetic acid and placed at 52° C. for 30 min. Mix with an equal volume of Ehrlich's reagent, measure the light absorption at 480 nm, and calculate the IC50 values.

Hela cells = experiment: Activity in Hela cells (interferon-γ induced, kynurenine readout with Ehrlich's reagent); assay type: cell-based; details: Homo sapiens, interferon-γ 50 ng/mL, tryptophan 16 mg/L, 48 hours, absorption at 480 nm
Method: Example 1: Study on the Activity of the Compound of the Present Invention in Hela Cells
Hela cells were seeded in 96-well culture plates and incubated at 37° C., 100% relative humidity, 5% CO2 incubator for 24 hours. The compound was dissolved in DMSO and diluted to an appropriate concentration, and then the compound was diluted 100-fold with DMEM medium containing interferon-γ and 10% fetal bovine serum to the final concentration of effect. Aspirate the old medium from the 96-well plate and add 200 μL of each medium containing compound and interferon-γ from the previous step. The content of tryptophan in the medium is 16 mg/L, and the concentration of interferon-γ is 50 ng/mL. The cells were placed in a 37° C., 100% relative humidity, and 5% CO2 incubator for 48 hours, then 140 μL of the cell culture supernatant was mixed with 15 μL of trichloroacetic acid, and placed at 52° C. for 30 min, then centrifuged at room temperature to take the centrifugal supernatant. Mix with an equal volume of Ehrlich's reagent, measure the light absorption at 480 nm, and calculate the IC50 values.

T1 sequence (P14902 whole entry): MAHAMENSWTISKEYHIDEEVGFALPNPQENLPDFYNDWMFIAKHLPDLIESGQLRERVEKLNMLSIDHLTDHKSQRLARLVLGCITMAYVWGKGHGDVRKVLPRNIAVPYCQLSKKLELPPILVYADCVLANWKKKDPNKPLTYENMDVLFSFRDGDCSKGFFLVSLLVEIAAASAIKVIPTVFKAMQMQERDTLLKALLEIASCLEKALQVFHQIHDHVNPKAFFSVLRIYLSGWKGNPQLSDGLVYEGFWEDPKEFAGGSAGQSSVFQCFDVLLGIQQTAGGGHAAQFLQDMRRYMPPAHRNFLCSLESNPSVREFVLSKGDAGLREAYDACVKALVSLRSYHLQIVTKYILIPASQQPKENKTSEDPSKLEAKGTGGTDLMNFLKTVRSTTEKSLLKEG

Row | IC50 (human IDO1 protein) [nM] | IC50 (Hela cells) [nM] | Structure (SMILES)
1 | > 100 | > 100 | N#CC1(C(=O)Nc2ccc(Cl)cc2)CC12CCC(c1ccnc3ccc(F)cc13)CC2 (stereo not drawn) [Compound 107, N-(4-chlorophenyl)-1-cyano-6-(6-fluoroquinolin-4-yl)spiro[2.5]octane-1-carboxamide]
2 | > 100 | 10 to 100 | O=C(Nc1ccc(Cl)cc1)C1CC12CCC(c1ccnc3cc4c(cc13)OCO4)CC2 (stereo not drawn) [Compound 110, 6-([1,3]dioxolo[4,5-g]quinolin-8-yl)-N-(4-chlorophenyl)spiro[2.5]octane-1-carboxamide]
3 | > 100 | > 100 | COC(=O)COc1ccc(NC(=O)C2CC23CCC(c2ccnc4cc(C)c(F)cc24)CC3)cc1 (stereo not drawn) [Compound 111, Methyl 2-(4-(6-(6-fluoro-7-methylquinolin-4-yl)spiro[2.5]octane-1-carboxamido)phenoxy)acetate]
4 | > 100 | 10 to 100 | Cc1cc2nccc(C3CCC4(CC3)CC4C(=O)Nc3ccc(OCCO)cc3)c2cc1F (stereo not drawn) [Compound 112, 6-(6-fluoro-7-methylquinolin-4-yl)-N-(4-(2-hydroxyethoxy)phenyl)spiro[2.5]octane-1-carboxamide]
5 | 10 to 100 | 0.1 to 10 | COCCOc1ccc(NC(=O)C2CC23CCC(c2ccnc4cc(OC)c(OC)cc24)CC3)cc1 (stereo not drawn) [Compound 113, 6-(6,7-dimethoxyquinolin-4-yl)-N-(4-(2-methoxyethoxy)phenyl)spiro[2.5]octane-1-carboxamide]
6 | 10 to 100 | 0.1 to 10 | O=C(Nc1ccc(Cl)cc1)C1CC12CCC(c1ccnc3cc(CO)c(F)cc13)CC2 (stereo not drawn) [Compound 114, N-(4-chlorophenyl)-6-(6-fluoro-7-(hydroxymethyl)quinolin-4-yl)spiro[2.5]octane-1-carboxamide]

Continued, molecule first:

Row | Structure (SMILES) | IC50 (human IDO1 protein) [nM] | IC50 (Hela cells) [nM]
7 | O=C(Nc1ccc(Cl)s1)C1CC12CCC(c1ccnc3ccc(F)cc13)CC2 (stereo not drawn) [Compound 13, N-(5-chlorothiophen-2-yl)-6-(6-fluoroquinolin-4-yl)spiro[2.5]octane-1-carboxamide] | 10 to 100 | 10 to 100
8 | COCCOc1ccc(NC(=O)C2CC23CCC(c2ccnc4cc(C)c(F)cc24)CC3)cc1 (stereo not drawn) [Compound 94, 6-(6-fluoro-7-methylquinolin-4-yl)-N-(4-(2-methoxyethoxy)phenyl)spiro[2.5]octane-1-carboxamide] | 10 to 100 | 0.1 to 10
9 | Cc1cc2nccc(C3CCC4(CC3)CC4C(=O)Nc3ccc(Cl)nc3)c2cc1F (stereo not drawn) [Compound 95, N-(6-chloropyridin-3-yl)-6-(6-fluoro-7-methylquinolin-4-yl)spiro[2.5]octane-1-carboxamide] | 10 to 100 | 0.1 to 10
10 | Cc1cc2nccc(C3CCC4(CC3)CC4C(=O)Nc3cncc(Cl)c3)c2cc1F (stereo not drawn) [Compound 96] | > 100 | 10 to 100
11 | Cc1cc2nccc(C3CCC4(CC3)CC4C(=O)Nc3ccnc(Cl)c3)c2cc1F (stereo not drawn) [Compound 97] | > 100 | > 100
12 | O=C(Nc1ccc(Cl)cc1)C1CC12CCC(c1ccnc3cc(F)c(F)cc13)CC2 (stereo not drawn) [Compound 100, N-(4-chlorophenyl)-6-(6,7-difluoroquinolin-4-yl)spiro[2.5]octane-1-carboxamide] | 10 to 100 | 0.1 to 10
13 | COc1cc2nccc(C3CCC4(CC3)CC4C(=O)Nc3ccc(Cl)cc3)c2cc1OC (stereo not drawn) [Compound 101] | 10 to 100 | 0.1 to 10
14 | N#Cc1cc2nccc(C3CCC4(CC3)CC4C(=O)Nc3ccc(Cl)cc3)c2cc1F (stereo not drawn) [Compound 102, N-(4-chlorophenyl)-6-(7-cyano-6-fluoroquinolin-4-yl)spiro[2.5]octane-1-carboxamide] | 10 to 100 | 0.1 to 10
15 | O=C(Nc1ccc(Cl)cc1)C1CC12CCC(c1ccnc3cc4c(cc13)OCCO4)CC2 (stereo not drawn) [Compound 103, N-(4-chlorophenyl)-6-(2,3-dihydro-[1,4]dioxino[2,3-g]quinolin-9-yl)spiro[2.5]octane-1-carborboxamide] | > 100 | > 100
16 | O=C(Nc1ccc(Cl)cc1)C1CC12CCC(O)(c1ccnc3ccc(F)cc13)CC2 (stereo not drawn) [Compound 104, N-(4-chlorophenyl)-6-(6-fluoroquinolin-4-yl)-6-hydroxyspiro[2.5]octane-1-carboxamide] | > 100 | > 100
17 | COc1cc2nccc(C3CCC4(CC3)CC4C(=O)Nc3ccc(Cl)cc3)c2cc1F (stereo not drawn) [Compound 105, N-(4-chlorophenyl)-6-(6-fluoro-7-methoxyquinolin-4-yl)spiro[2.5]octane-1-carboxamide] | 0.1 to 10 | 10 to 100
18 | CC1(C(=O)Nc2ccc(Cl)cc2)CC12CCC(c1ccnc3ccc(F)cc13)CC2 (stereo not drawn) [Compound 106, N-(4-chlorophenyl)-6-(6-fluoroquinolin-4-yl)-1-methylspiro[2.5]octane-1-carboxamide] | > 100 | > 100
